10 compounds from ChEMBL document CHEMBL1201862, “PubChem BioAssay data set” (2004) can be followed below.

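1) Cells in 96-well plates. 2) Compound, 48 h, 5 concentrations. 3) Linear interpolation between surrounding doses. 4) Unreached endpoint = highest concentration. At the GI50, growth is halved.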 The source made the active and inactive calls. Rule as the data show it: active = GI50 up to about 1.1 µM and inactive = higher.

Assay in all cases: DTP human tumour cell line panel, 48 h
For test [1], the system named is A549.
The test system of test [2] is DU-145.
For test [3], the system named is HCT-116.
For test [4], the system named is HT-29.
Test [5] concerns MDA-MB-435.
For test [6], the system named is MDA-N.
Test [7] concerns MOLT-4.
Test [8] relates to Malme-3M.
Test [9] relates to NCI-H460.
For test [10], the system named is NCI/ADR-RES.
In test [11] the test system is RPMI-8226.
For test [12], the system named is RXF 393.
Test [13] has as its system SF-268.
In test [14] the test system is SF-539.
Test [15] concerns SK-MEL-2.
For test [16], the system named is SK-OV-3.
For test [17], the system named is SN12C.
Test [18] concerns U-251.
Test [19] has as its system UACC-257.
The test system of test [20] is UO-31.

For `O=C(O)c1cc(/C=C/c2ccc(O)c(O)c2)ccc1O`, the GI50 (as a rule, the concentration giving 50% growth inhibition) is > 100 µM (inactive) in [1]; > 100 µM (inactive) in test [2]; 40 µM (inactive) in test [3]; > 100 µM (inactive) in test [4]; 77.8 µM (inactive) in [5]; 34.8 µM (inactive) in test [6]. Moreover, the GI50 in test [7] is 30.8 µM (inactive); in test [8], > 100 µM (inactive); in test [9], > 100 µM (inactive); in test [10], > 100 µM (inactive); in [11], 31 µM (inactive); in test [12], 28.1 µM (inactive). Besides, the GI50 in test [13], in [14], in [15], in [16], in [17] and in test [18] was > 100 µM (inactive) throughout. The GI50 in [19] and in test [20] was > 100 µM (inactive) throughout.
Consider `O=C1C(NS(=O)(=O)c2ccccc2)=C(n2ccnc2)C(=O)c2ccccc21`, for which the GI50 in [1], in test [2], in test [3], in test [4], in test [5] and in test [6] was > 100 µM (inactive) each time. In addition, the GI50 in test [7] was > 100 µM (inactive); in [8], 96.4 µM (inactive); in [9], > 100 µM (inactive); in test [10], > 100 µM (inactive); in test [11], > 100 µM (inactive); in test [12], > 100 µM (inactive). For the same compound, the GI50 in test [13], in test [14], in test [15], in test [16], in [17] and in test [18] was > 100 µM (inactive) in each case. Moreover, the GI50 in test [19] and in test [20] was > 100 µM (inactive) in each case.
On to `CCn1c(=N)sc2nc3ccccc3n2c1=O`, for which the GI50 in [1], in test [2], in test [3], in [4], in [5] and in test [6] was > 100 µM (inactive) throughout. Further, the GI50 in test [7], in test [8], in test [9], in test [10], in test [11] and in test [12] was > 100 µM (inactive) throughout. For the same compound, the GI50 in test [13], in test [14], in [15], in test [16], in [17] and in test [18] was > 100 µM (inactive) throughout. Also, the figures for the GI50 in [19] and in test [20] were > 100 µM (inactive) and 14.9 µM (inactive), respectively.
Take `O=C(NC(=O)c1ccccc1[N+](=O)[O-])Nc1ccc(Oc2ncc(Cl)cn2)c(C(F)(F)F)c1`: the GI50 was 0.0183 µM (active) in [1]; 0.0366 µM (active) in test [2]; 0.0124 µM (active) in [3]; 0.0105 µM (active) in [4]; < 0.01 µM (active) in test [5]; < 0.01 µM (active) in test [6]. Further, the GI50 in [7] was 0.047 µM (active); in test [8], < 0.01 µM (active); in test [9], < 0.01 µM (active); in [10] it was < 0.01 µM (active); in test [11] it was 0.0208 µM (active); in test [12], < 0.01 µM (active). The GI50 in test [13] is 0.0733 µM (active); in test [14] it was 0.0109 µM (active); in [15], < 0.01 µM (active); in test [16] it was < 0.01 µM (active); in test [17], 0.0873 µM (active); in test [18] it was < 0.0121 µM (active). In addition, the GI50 was < 0.01 µM (active) in test [19] and 0.0281 µM (active) in test [20].
On to `O=C1Nc2ccccc2/C1=C1/Nc2ccccc2/C1=N/OCCO`, for which the GI50 in test [1] was 1.52 µM (inactive); in test [2] it was 0.713 µM (active); in [3], 0.481 µM (active); in test [4], 2.44 µM (inactive); in test [5], 2.47 µM (inactive); in test [6] it was 23 µM (inactive). Further, the GI50 was 0.8 µM (active) in test [7]; 5.53 µM (inactive) in [8]; 0.824 µM (active) in test [9]; > 100 µM (inactive) in [10]; > 100 µM (inactive) in test [11]; 5.85 µM (inactive) in [12]. Also, the GI50 in test [13] was > 100 µM (inactive); in [14] it was > 100 µM (inactive); in [15], 0.457 µM (active); in test [16] it was 0.299 µM (active); in [17], 29 µM (inactive); in test [18] it was > 100 µM (inactive). Moreover, the GI50 in [19] is > 100 µM (inactive); in [20], 0.363 µM (active).
Turning to `O=C(/C=C(O)/C(=C/C(=O)c1ccccc1)NN=C(c1ccccc1)c1ccccc1)c1ccccc1`, the GI50 in test [1] is 36.1 µM (inactive); in test [2] it was 45.2 µM (inactive); in test [3], 28.1 µM (inactive); in test [4] it was 85.7 µM (inactive); in [5], 31 µM (inactive); in [6] it was 31.8 µM (inactive). Further, the GI50 was 14.1 µM (inactive) in [7]; 25.2 µM (inactive) in [8]; 24 µM (inactive) in test [9]; 18.9 µM (inactive) in test [10]; 24.4 µM (inactive) in test [11]; 41 µM (inactive) in test [12]. In addition, the GI50 in [13] was 30.3 µM (inactive); in test [14], 37.5 µM (inactive); in test [15] it was 25.8 µM (inactive); in [16], 25.8 µM (inactive); in [17] it was 30.2 µM (inactive); in test [18], 26.7 µM (inactive). Moreover, the GI50 in test [19] is 26.9 µM (inactive); in test [20] it was 47.6 µM (inactive).
Regarding `CCN(c1cccc(NC(=S)Nc2ccccc2N(CC)c2cc(-c3ccccc3)no2)c1)c1cc(-c2ccccc2)no1`, the GI50 in test [1], in [2], in test [3], in test [4], in test [5] and in test [6] was > 100 µM (inactive) in each case. Also, the GI50 in [7], in [8], in [9], in [10], in test [11] and in test [12] was > 100 µM (inactive) each time. In addition, the GI50 in test [13], in [14], in test [15], in [16], in test [17] and in [18] was > 100 µM (inactive) each time. For the same compound, the GI50 in test [19] and in test [20] was > 100 µM (inactive) each time.
For `COc1cc(C2c3cc4c(cc3OC(NNC(N)=S)C2C)OCO4)cc(OC)c1OC` (stereo not given), the GI50 is 0.644 µM (active) in test [1]; 4.17 µM (inactive) in test [2]; 0.244 µM (active) in [3]; 0.269 µM (active) in [4]; 0.0425 µM (active) in test [5]; 0.084 µM (active) in test [6]. The GI50 in test [7] was 0.374 µM (active); in test [8], 0.53 µM (active); in test [9], 0.376 µM (active); in [10], 0.585 µM (active); in [11], 0.29 µM (active); in [12], 0.279 µM (active). Further, the GI50 in [13] is 3.33 µM (inactive); in test [14], 0.199 µM (active); in test [15] it was 25.6 µM (inactive); in test [16], 0.53 µM (active); in test [17] it was 1.03 µM (active); in test [18], 0.362 µM (active). The results for the GI50 in [19] and in test [20] were 1.93 µM (inactive) and 0.931 µM (active), respectively.
As for `CCOc1c2ccsc2c(OCC)c2ccsc12`, the GI50 in test [1] was 7.21 µM (inactive); in [2], 5 µM (inactive); in test [3] it was 4.06 µM (inactive); in test [4], 3.48 µM (inactive); in test [5] it was 0.766 µM (active); in [6], 0.94 µM (active). Moreover, the GI50 was 3.52 µM (inactive) in test [7]; 3.73 µM (inactive) in test [8]; 3.58 µM (inactive) in [9]; 7.05 µM (inactive) in test [10]; 4.06 µM (inactive) in test [11]; 3.59 µM (inactive) in test [12]. Further, the GI50 in test [13] is 9.82 µM (inactive); in [14], 2.41 µM (inactive); in test [15], > 30.1 µM (inactive); in test [16] it was 3.92 µM (inactive); in [17], 20.6 µM (inactive); in test [18] it was 3.72 µM (inactive). Also, the GI50 in [19] was > 29.1 µM (inactive); in [20] it was 9.02 µM (inactive).
As for `CC(C)=CCOc1cc(NC(=S)c2ccoc2C)ccc1Cl` [UC 781], the GI50 in test [1], in [2], in test [3], in test [4], in [5] and in test [6] was > 100 µM (inactive) each time. For the same compound, the GI50 in test [7] was 9.38 µM (inactive); in test [8] it was > 100 µM (inactive); in test [9] it was > 100 µM (inactive); in [10], > 100 µM (inactive); in [11] it was > 100 µM (inactive); in [12], > 100 µM (inactive). The GI50 was 45.5 µM (inactive) in test [13]; > 100 µM (inactive) in test [14]; > 100 µM (inactive) in test [15]; > 100 µM (inactive) in [16]; 34.7 µM (inactive) in [17]; 48.5 µM (inactive) in test [18]. In addition, the GI50 in test [19] and in [20] was > 100 µM (inactive) each time.
